Measured values published in patent EP0983763A1, “PREVENTIVES FOR RECONSTRICTION” (TAISHO PHARMACEUTICAL CO. LTD, priority 1997, dated 1998).

Tests used:
intimal thickening [1] = assay: Inhibiting activity on intimal thickening in a model for vascular endothelial injury in normal rabbits (balloon catheter injury of right common carotid artery); format: in vivo, NZW strain male rabbits; conditions: for Level of intimal thickening I/M: 1 week before and 2 weeks after endothelium injury, Means ± S.E., control 0.251±0.030
Description: (§1) As test animals were used a group of 5 NZW strain male rabbits of 2 months (available from Kitayama RABES K.K.) After a drug was administered to rabbits for 1 week, a balloon catheter for removing arterial embolus (Fogarty catheter, E-060-2F, available from Baxter Co., Inc.) was inserted into the right common carotid artery via the right external carotid artery of the rabbits under anesthesia with pentobarbital. The right common carotid artery was abraded three times with the balloon swollen (a balloon pressure of 0.5-1.0 atm) to produce a model for the injured vascular endothelium. The drug was administered for 2 weeks after the endothelium injury, and then the artery was excised and fixed with 10% neutral buffered formalin to prepare a slice of the arterial ring tissue. Elastic fiber-stained tissue preparations were prepared by Elastic Van Gieson (EVG) staining. Areas of the intima (I) and of the medium (M) were measured by means of an image analysis system (Adobe Photoshop, Unitimage for the Apple Macintosh) and a ratio of both values (I/M) was calculated to determine a level of intimal thickening.
The drug was given in admixture with a rabbit feed RC-4 (available from Oriental Kobo K.K.) at the concentration of 0.0003% and a dose was calculated from the amount of feed ingested and the body weight.

intimal thickening [2] = assay: Inhibiting activity on intimal thickening in a model for vascular endothelial injury in WHHL rabbits (balloon catheter injury of right common carotid artery); format: in vivo, WHHL strain male rabbits; conditions: for Level of intimal thickening I/M: 4 weeks after endothelium injury, Means ± S.E., control 1.00±0.23
From the text: as §1, with “of 4 homozygous hereditary hyperlipemic WHHL” for “of 5 NZW”, “K.K.) A” for “K.K.) After a drug was administered to rabbits for 1 week, a”, “for 4” for “for 2”, “thickening. A total blood cholesterol level was measured according to an enzyme method (Autosera CHO-2, Daiichi Kagaku Yakuhin K.K.) using an autoanalyzer (Hitachi 7150 type).” for “thickening.”
(§2) The drug was given in admixture with a rabbit feed RC-4 (available from Oriental Kobo K.K.) at the concentrations of 0.0003% and of 0.003%, and then a dose was calculated from the amount of feed ingested and the body weight.

[3] = Total blood cholesterol level by enzyme method in the WHHL rabbit endothelial injury model; format: in vivo, WHHL strain male rabbits; conditions: WHHL rabbits, 4 weeks after endothelium injury, Means ± S.E., control 841±44
From the text: as §1, with “of 4 homozygous hereditary hyperlipemic WHHL” for “of 5 NZW”, “K.K.) A” for “K.K.) After a drug was administered to rabbits for 1 week, a”, “for 4” for “for 2”, “thickening. A total blood cholesterol level was measured according to an enzyme method (Autosera CHO-2, Daiichi Kagaku Yakuhin K.K.) using an autoanalyzer (Hitachi 7150 type).” for “thickening.”
as §2

smooth muscle cells = assay: Histopathological observation of the thickened intima after injury of the blood vessel; format: in vivo; conditions: histopathologically observed; model and dose not stated

SMILES: COc1ccc(/C=C/C(=O)Nc2ccccc2C(=O)O)cc1OC [Tranilast, tranilast, reference compound]
- Level of intimal thickening I/M (intimal thickening [1]; 100 mg/kg (0.167% in feed)): 0.184±0.051
- inhibition at 100 mg/kg (intimal thickening [1]; Oryctolagus cuniculus, feed or water, 100 mg/kg (0.167% in feed), from I/M ratio vs control group): 26.6%

SMILES: CC(C)(Sc1cc(C(C)(C)C)c(O)c(C(C)(C)C)c1)Sc1cc(C(C)(C)C)c(O)c(C(C)(C)C)c1 [Probucol, probucol, reference compound]
- Level of intimal thickening I/M (intimal thickening [2]; 190 mg/kg (0.35% in feed)): 0.43±0.08
- inhibition at 190 mg/kg (intimal thickening [2]; Oryctolagus cuniculus, 190 mg/kg, from I/M ratio vs control group): 57%
- Total blood cholesterol ([3]; 190 mg/kg (0.35% in feed)): 723 ± 44 mg/dL

SMILES: CCCCCCCCCCCCCCSCC(=O)Nc1c(C(C)C)cccc1C(C)C [Compound of the invention]
- Level of intimal thickening I/M (intimal thickening [1]; 0.2 mg/kg (0.0003% in feed)): 0.126±0.028
- inhibition at 0.2 mg/kg (intimal thickening [1]; Oryctolagus cuniculus, feed or water, 0.2 mg/kg (0.0003% in feed), from I/M ratio vs control group): 49.8%
- Level of intimal thickening I/M (intimal thickening [2]; 0.2 mg/kg (0.0003% in feed)): 0.45±0.19
- Level of intimal thickening I/M (intimal thickening [2]; 2.0 mg/kg (0.003% in feed)): 0.38±0.05
- inhibition at 0.2 mg/kg (intimal thickening [2]; Oryctolagus cuniculus, 0.2 mg/kg, from I/M ratio vs control group): 55%
- inhibition at 2 mg/kg (intimal thickening [2]; Oryctolagus cuniculus, 2.0 mg/kg, from I/M ratio vs control group): 62%
- Total blood cholesterol ([3]; 0.2 mg/kg (0.0003% in feed)): 861 ± 83 mg/dL
- Total blood cholesterol ([3]; 2.0 mg/kg (0.003% in feed)): 907 ± 48 mg/dL
- number of smooth muscle cells during the proliferation period in the thickened intima (smooth muscle cells): decrease the number of smooth muscle cells
